For orientation: EC50 means the concentration needed to bring the measured effect to its halfway point. For orientation: IC50 means the concentration needed to halve the response being measured.

In patent US8329711B2, “Pyridone-substituted-dihydropyrazolopyrimidinone derivative” (MSD K.K., priority 2007, dated 2012) one finds EC50 and IC50 data, which are given here for three compounds.

Experiment [1] concerns Cdc2 (Cdk1) tyrosine 15 phosphorylation in NCI-H1299 cells. Briefly: Cdc2 (Cdk1) tyrosine 15-phosphorylation-inhibitory effect in NCI-H1299 cells, camptothecin-treated (ELISA). Particulars: Homo sapiens, 200 nM camptothecin 16 hours, then test compound with nocodazole 8 hours, read-out: Cdc2-Y15 Phosphorylation-Inhibitory Effect (H1299, +camptothecin) (EC50). In kind it is cell-based. The source says:
Pharmacological Test 2 (Method of Determining Drug Potency with Cells (Cdc2 (Cdk1) Tyrosine 15-Phosphorylation-Inhibitory Effect))
Fetal bovine serum (FBS) was gotten from Morgate; media RPMI1640 and DMEM were from Invitrogen; camptothecin was from Sigma; gemcitabine was from Nippon Eli Lilly; nocodazole and protease inhibitor cocktail were from Sigma; rabbit anti-Cdc2 antibody and mouse anti-Cdc2 antibody were from Santa Cruz Biotechnology; rabbit anti-tyrosine 15-phosphorylated Cdc2 antibody and horseradish peroxidase-labeled anti-mouse IgG antibody were from Cell Signaling Technology; sure blue reserve TMB peroxidase substrate was from Kirkegaard and Perry Laboratories.
Human non-small cell lung cancer cells (NCI-H1299) and human colon cancer cells (WiDr) were gotten from American Type Culture Collection (ATCC).
In the method of using NCI-H1299 cells, the cells were suspended in a medium of 10% FBS-added RPMI1640, and the cell suspension was applied to a 96-well Nunclondelta-processed plastic plate (bought from Nunc), in an amount of 2000 cells/100 μL/well, in which the cells were incubated overnight in 5% CO2-95% air at 37° C. Camptothecin was dissolved in dimethyl sulfoxide (DMSO), and diluted with a medium of 10% FBS-added RPMI1640, and then this was applied to the plate on which the cells had been previously sowed, in an amount of 50 μL/well in such a manner that the final concentration of camptothecin could be 200 nM. Then, the cells were incubated for 16 hours at 37° C. in 5% CO2-95% air. A test compound was stepwise diluted with DMSO, then diluted with 4000 nM nocodazole-containing, 10% FBS-added RPMI1640, and applied to the plate on which the camptothecin-treated cells had been sowed, in an amount of 50 μL/well. […] Cdc2 was determined through ELISA as follows: A rabbit anti-Cdc2 antibody solution, which had been diluted 200-fold with 50 mM carbonate-bicarbonate buffer (pH 9.6), was applied to a 96-well maxisorpimmuno plate (bought from Nunc), in an amount of 50 μL/well, and statically kept overnight at 4° C. so as to fix the antibody on the plate. […]
In general terms: ELISA stands for enzyme-linked immunosorbent assay.

In another experiment the target is T1, Wee1 kinase (Homo sapiens, UniProt P30291).
T1 construct: made in house; host or cells: Sf9 insect cells (recombinant baculovirus)
Kind of experiment: Wee1 kinase-inhibitory effect (33P-ATP filter assay with GST-tagged Wee1). In kind it is biochemical. The following applies: purified GST-Wee1, Poly(Lys,Tyr) substrate, 10 μM ATP, 30° C. for 30 minutes; read-out: Weel-Inhibitory Effect (IC50). An excerpt:
Pharmacological Test 1 (Wee1 Kinase-Inhibitory Effect)
(1) Purification of Wee1 Kinase:
A cDNA of Wee1 kinase with glutathion-S-transferase (GST) fused at the amino terminal thereof was inserted into a baculovirus expression vector to construct a recombinant baculovirus, with which cells of an insect cell line Sf9 were infected for high expression therein. The infected cells were collected and solubilized, and then the GST-tagged Wee1 kinase protein was adsorbed by a glutathion column, and eluted from the column with glutathion, and the active fraction was desalted in a desalting column to give a purified enzyme.
(2) Determination of Wee1 Kinase Activity:
In determination of the Wee1 kinase activity, a synthetic peptide, Poly(Lys,Tyr) Hydrobromide (Lys:Tyr (4:1)) bought from Sigma was used as the substrate.
The amount of the reaction liquid was 21.1 μL; and the composition of the reaction buffer was 50 mM Tris-HCl buffer (pH 7.4)/10 mM magnesium chloride/1 mM dithiothreitol. The purified Wee1 kinase, 2.5 μg of the substrate peptide, 10 μM of non-labeled adenosine triphosphate (ATP) and 1 μCi of [γ-^33P]-labeled ATP (2500 Ci/mmol or more) were added to it, and reacted at 30° C. for 30 minutes. Next, 10 μL of 350 mM phosphate buffer was added to the reaction system to stop the reaction. The substrate peptide was adsorbed by a P81 paper filter 96-well plate, then washed a few times with 130 mM phosphate buffer, and its radioactivity was counted with a liquid scintillation counter. The [γ-^33P]-labeled ATP was bought from Amersham Bioscience.
To add a test compound to the reaction system, the compound was diluted with dimethyl sulfoxide (DMSO) to prepare a series of dilutions. 1.1 μL of each dilution was added to the reaction system. As a control, 1.1 μL of DMSO was added to the reaction system.

T1 sequence (P30291 whole entry): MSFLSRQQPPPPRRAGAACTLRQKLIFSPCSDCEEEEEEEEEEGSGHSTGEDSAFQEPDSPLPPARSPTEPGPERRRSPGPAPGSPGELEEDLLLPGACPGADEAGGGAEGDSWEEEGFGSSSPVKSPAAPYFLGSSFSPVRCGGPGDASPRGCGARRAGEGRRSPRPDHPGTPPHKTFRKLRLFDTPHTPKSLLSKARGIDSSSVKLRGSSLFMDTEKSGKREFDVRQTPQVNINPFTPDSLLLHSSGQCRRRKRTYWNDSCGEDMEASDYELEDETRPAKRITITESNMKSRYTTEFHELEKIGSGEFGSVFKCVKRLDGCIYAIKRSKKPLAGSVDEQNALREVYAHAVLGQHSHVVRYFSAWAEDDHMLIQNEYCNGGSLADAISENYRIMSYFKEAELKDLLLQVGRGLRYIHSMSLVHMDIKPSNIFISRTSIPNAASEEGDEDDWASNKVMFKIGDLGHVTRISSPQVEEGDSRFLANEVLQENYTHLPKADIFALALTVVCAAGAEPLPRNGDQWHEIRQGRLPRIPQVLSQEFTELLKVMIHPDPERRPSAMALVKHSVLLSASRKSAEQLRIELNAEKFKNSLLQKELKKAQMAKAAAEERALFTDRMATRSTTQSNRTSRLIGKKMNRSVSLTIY

For `C=CCn1c(=O)c2cnc(Nc3ccc(N4CCN(C)CC4)cc3)nc2n1-c1cccc(-n2ccccc2=O)n1` [Example 1, 6′-(2-allyl-6-{[4-(4-methylpiperazin-1-yl)phenyl]amino}-3-oxo-2,3-dihydro-1H-pyrazolo[3,4-d]pyrimidin-1-yl)-2H-1,2′-bipyridin-2-one], in experiment [1], the 50% effective concentration (EC50) worked out at 0.19 µM. Moreover, the IC50 on Wee1 kinase was determined as 0.016 µM.
`C=CCn1c(=O)c2cnc(Nc3ccc(N4CCN(C)CC4)cc3)nc2n1-c1cccc(-n2cc(F)ccc2=O)n1` [Example 5, 6′-(2-allyl-6-{[4-(4-methylpiperazin-1-yl)phenyl]amino}-3-oxo-2,3-dihydro-1H-pyrazolo[3,4-d]pyrimidin-1-yl)-5-fluoro-2H-1,2′-bipyridin-2-one]: in experiment [1], the half-maximal effective concentration (EC50) is 0.26 µM. Also, the 50% inhibitory concentration (IC50) on Wee1 kinase was found to be 0.018 µM.
`C=CCn1c(=O)c2cnc(Nc3ccc4c(c3)CN(C)CC4)nc2n1-c1cccc(-n2ccccc2=O)n1` [Example 30, 6′-{2-Allyl-6-[(2-methyl-1,2,3,4-tetrahydroisoquinolin-7-yl)amino]-3-oxo-2,3-dihydro-1H-pyrazolo[3,4-d]pyrimidin-1-yl}-2H-1,2′-bipyridin-2-one]: the EC50 in experiment [1] was determined as 0.18 µM. The 50% inhibitory concentration (IC50) on Wee1 kinase stood at 0.0179 µM.
